The assay addresses T1, recombinant human neutral endopeptidase (NEP, EC 3.4.24.11) (Homo sapiens, UniProt P08473).
T1 construct: made in house; host or cells: insect cells
Kind of assay: in vitro inhibition of recombinant human neutral endopeptidase (fluorescence lifetime assay). It counts as biochemical. To be noted: recombinant human NEP 7 pM, 1 hour pre-incubation, substrate Cys(PT14)-Arg-Arg-Leu-Trp-OH 0.7 μM, read after 1 hour at room temperature, pH 7.4. An excerpt:
The activity of a compound according to the present invention can be assessed by the following in vitro & in vivo methods and/or by the following in vitro & in vivo methods well-described in the art. See A fluorescence lifetime-based assay for protease inhibitor profiling on human kallikrein 7 Doering K, Meder G, Hinnenberger M, Woelcke J, Mayr L M, Hassiepen U Biomol Screen.
In particular, the in vitro inhibition of recombinant human neutral endopeptidase (NEP, EC 3.4.24.11) can be determined as follows: […]

T1 sequence (P08473 whole entry): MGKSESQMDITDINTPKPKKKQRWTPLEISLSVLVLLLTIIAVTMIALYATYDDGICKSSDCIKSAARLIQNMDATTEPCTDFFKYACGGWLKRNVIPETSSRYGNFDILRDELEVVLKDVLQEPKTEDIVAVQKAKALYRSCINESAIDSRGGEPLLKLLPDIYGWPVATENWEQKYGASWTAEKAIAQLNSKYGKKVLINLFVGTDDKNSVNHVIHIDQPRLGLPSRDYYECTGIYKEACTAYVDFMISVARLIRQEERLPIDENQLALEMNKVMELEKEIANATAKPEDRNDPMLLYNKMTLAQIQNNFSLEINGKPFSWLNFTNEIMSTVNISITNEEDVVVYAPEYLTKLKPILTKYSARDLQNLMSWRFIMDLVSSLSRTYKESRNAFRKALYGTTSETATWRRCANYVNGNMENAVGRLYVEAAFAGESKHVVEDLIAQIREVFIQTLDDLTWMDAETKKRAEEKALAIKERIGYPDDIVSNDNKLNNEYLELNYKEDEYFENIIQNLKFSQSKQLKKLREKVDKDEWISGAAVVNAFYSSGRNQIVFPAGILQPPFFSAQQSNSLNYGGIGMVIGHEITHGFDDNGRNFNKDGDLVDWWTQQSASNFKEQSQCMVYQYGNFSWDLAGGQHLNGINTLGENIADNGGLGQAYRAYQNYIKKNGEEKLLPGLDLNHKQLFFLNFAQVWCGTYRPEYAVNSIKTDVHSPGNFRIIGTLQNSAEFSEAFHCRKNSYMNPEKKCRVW

Broadly, the IC50 is the point on the concentration scale where inhibition reaches its midpoint. Consider `COc1ccccc1-c1ccc(C[C@H](CC(C)C(=O)O)NC(=O)CCC(=O)O)cc1` (stereo partly drawn) [Example 6, (S)-4-(3-Carboxy-propionylamino)-5-(2′-methoxy-biphenyl-4-yl)-2-methyl-pentanoic acid], for which the IC50 was 3 nM.

For the origin of these results see patent US8673974B2, “Substituted amino bisphenyl pentanoic acid derivatives as NEP inhibitors” (Novartis AG, priority 2010, dated 2014).
